The values that follow come from PMC5360176 (Journal of clinical psychopharmacology, 2016).

“And” between values parts separate entries of the source, which are not always exact repeats. Equal entries are not always repeated. Where two headings read alike, the source gives them in different places.

The conditions of data set [1]: human, in vivo.
The nature of data set [2]: clinical. The settings on record: human, in vivo.
In a further data set the test system is CAI. The settings on record: low affinity RBC isoform; cited from earlier work.
Data set [3] in a line: clinical. The conditions noted are these: human, in vivo. This is another data set of the same source.
The conditions of data set [4]: human, in vivo. The source holds these as a separate data set.
Data set [5] can be described thus: clinical. The conditions noted are these: human, in vivo. This is another data set of the same source.
The test system of a further data set is CAII. The conditions noted are these: high affinity RBC isoform; cited from earlier work.
The conditions of data set [6]: human, in vivo. The source holds these as a separate data set.
The conditions of data set [7]: cited from earlier work.
The conditions of data set [8]: oxycodone 30 mg p.o.
Setting [9] is: noroxycodone in plasma after oxycodone + ACZ, Day 5.
The mark [10] stands for this setting: noroxycodone in plasma after oxycodone alone, Day 1.
The mark [11] stands for this setting: noroxycodone in plasma after oxycodone alone, Day 8.
The mark [12] stands for this setting: therapeutic dose of ~400 mg ACZ/day.

With `COc1ccc2c3c1O[C@H]1C(=O)CC[C@@]4(O)[C@@H](C2)NCC[C@]314` [Noroxycodone], the “Area under Curve” value under setting [9] amounted to 218 ng·h/mL; the “Area under Curve” value under setting [11] came to 213 ng·h/mL; the “Area under Curve” value (noroxycodone metabolite in plasma after oxycodone alone, Day 1, one-compartment) worked out at 224 ng·h/mL. Besides, the Cmax – broadly, the highest concentration seen after dosing – runs as follows: under setting [9], 30 ng/mL; under setting [10], 34.9 ng/mL; under setting [11], 30.2 ng/mL. Moreover, the Tmax (as a rule, the time at which the peak concentration occurs) by setting is: under setting [9], 0.9 h; under setting [10], 0.9 h; under setting [11], 0.9 h. Also, the half-life (as a rule, the time needed for the level to fall by half in the phase considered) is listed as 5.0 h under setting [9], 4.3 h under setting [10] and 4.7 h under setting [11]. For the same compound, the “Effect of ACZ on noroxycodone PK parameters” value (presence or absence of ACZ) is on record as “no differences in any of the PK parameters”.
Consider `CC(=O)Nc1nnc(S(N)(=O)=O)s1` [ACZ, Acetazolamide], for which the “Urinary excretion rate Cmax” value in [1] turned out to be 669 µg/h. In [1] (48 h), the “Slowest individual urinary elimination rate (low outlier)” value was found to be 87 µg/h. The “Fastest individual urinary elimination rate (high outlier)” value in [1] (96 h) is 33 µg/h. Also, the Cmax in the data set “clinical [2]” (Blood Cmax) worked out at 776 ng/mL; in the data set “clinical [2]” (RBCs (minus residuum) Cmax), 636 ng/mL; in “clinical [2]” (RBCs (total) Cmax) it was 1790 ng/mL; in the data set “clinical [2]” (RBCtotal Cmax) it was 17 ± 1 µM; in “clinical [5]” (Cmax), 1310 ng/mL; in “clinical [5]” (Plasma Cmax), 660 ng/mL. In [6], this compound yielded a Cmax of 1285 ng/mL. Further, the Tmax was 4.8 h in the data set “clinical [2]” (Blood Tmax); 7.5 h in the data set “clinical [2]” (RBCs (minus residuum) Tmax); 7.2 h in “clinical [3]”; 1 h in the data set “clinical [5]” (Plasma Tmax); 1 h in the data set “clinical [5]” (Tmax); 0.5 h in [6]. Moreover, the Max binding capacity with CAI is 155 µM. In addition, the “Blood Area under Curve” value in [4] is recorded as 52130 ng/ml*h. The “RBCs (minus residuum) Area under Curve” value in data set [4] came out at 49555 ng/mlblood*h. In data set [4], the “RBCs (total) Area under Curve” value was 133107 ng/mlblood*h. Also, in the data set on CAII, the “Maximum ACZ binding capacity” value was 17 µM. Also, in data set [6], the “Plasma Area under Curve” value came to 5568 ng/mlblood*h. Also, the “Time of plasma maximum concentration (Cmax) after administration” value in data set [6] is at most 1 h. The “RBC concentration with which side effects correlate” value in [7] (therapeutic (~400 mg / day) doses) was “exceed 90 µM”. The “Mean RBC concentration” value in data set [7] (setting [12]) is 121 ± 46 µM. Moreover, in [7] (setting [12]), the Mean plasma concentration is 51 ± 40 µM.
As for `COc1ccc2c3c1O[C@H]1C(=O)CC[C@@]4(O)[C@@H](C2)N(C)CC[C@]314` [Oxycodone], the “Opioid Agonist Checklist scores as rated by subjects and observers” value in [8] is listed as “increased scores on an Opioid Agonist Checklist”. Besides, the Pupil diameter entry in data set [8] is listed as “sustained pupil miosis”. Also, the “Ratings on a visual analog scale of drug liking” value in [8] is recorded as “increased ratings on a visual analog scale of drug liking”. Besides, the Tmax by setting is: (human, in vivo, 30 mg) 1 h; (oxycodone alone, Day 8, plasma) 1.0 h. Also, the Cmax by setting is: (human, in vivo, 30 mg, Cmax, oxycodone alone, Day 1, plasma) 61.6 ng/mL; (human, in vivo, 30 mg, Cmax, oxycodone alone, Day 8, plasma) 68.5 ng/mL; (human, in vivo, Cmax, oxycodone + ACZ, Day 5, plasma) 71.4 ng/mL. The half-life by setting is: (human, in vivo, 30 mg, α-Half-life, oxycodone alone, Day 8, plasma) 0.14 ± 0.06 h; (human, in vivo, 30 mg, β-Half-life, oxycodone alone, Day 1, plasma) 3.9 h; (human, in vivo, 30 mg, β-Half-life, oxycodone alone, Day 8, plasma) 4.1 h; (human, in vivo, α-Half-life, oxycodone + ACZ 15 mg, Day 5, plasma) 0.2 h; (human, in vivo, β-Half-life, oxycodone + ACZ, Day 5, plasma) 4.1 h. The “Area under Curve” value by setting is: (oxycodone + ACZ, Day 5, plasma) 341.3 ng·h/mL; (oxycodone alone, Day 1, plasma) 281.1 ^♦ h*ng/ml; (oxycodone alone, Day 8, plasma) 318.6 ng·h/mL. Besides, the α-Half-life (oxycodone alone, Day 8, plasma) is 0.1 ^♦ h. Also, under “p<0.05, not different from Day 8”, the “Difference in oxycodone AUC (exposure), Day 5 with ACZ vs Day 1 alone” value was 20% and 20 ± 11%.
